Drawing on BindingDB's records for doi:10.1021/acsmedchemlett.0c00533 (Reaction Biology, 2021), this text covers IC50 for one compound.

This experiment concerns the target Mitogen-activated protein kinase 14 (Homo sapiens, UniProt Q16539). The experiment is described as follows: Inhibition of P38alpha (unknown origin).

The structures appear in SMILES notation.

Chain of Mitogen-activated protein kinase 14 (Q16539 whole entry): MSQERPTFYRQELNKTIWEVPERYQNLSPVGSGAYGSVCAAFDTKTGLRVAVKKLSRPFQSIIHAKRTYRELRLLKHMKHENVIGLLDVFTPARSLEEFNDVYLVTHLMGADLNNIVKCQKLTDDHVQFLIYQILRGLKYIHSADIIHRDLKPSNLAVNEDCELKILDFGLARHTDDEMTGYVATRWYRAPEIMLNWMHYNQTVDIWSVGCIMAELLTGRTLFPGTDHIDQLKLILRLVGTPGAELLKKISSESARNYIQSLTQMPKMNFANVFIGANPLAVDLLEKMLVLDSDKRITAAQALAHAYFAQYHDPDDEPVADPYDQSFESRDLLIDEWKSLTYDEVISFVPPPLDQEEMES

By IC50 is commonly meant the point on the concentration scale where inhibition reaches its midpoint. Higher therefore signals a need for much substance. Compound `O=C(Nc1cnn(-c2csc(C(=O)NC3CNC3)c2)c1)Nc1ccccc1Cl` gave an IC50 greater than 20 µM.
